Reference: patent US20100255015A1 (priority 2007, published 2010)
Like-named read-outs stand apart in the source and are kept apart here.

Legend:
Z5B71 T cell clone = assay: T cell activation assay: stimulation of the Z5B71 T cell clone, IFN-γ ELISA; format: cell-based, human; conditions: antigen-loaded APCs, 36 hr
[1] = tested on: CD1b-restricted T cell clones Z5B71, Z4B27, Z5B11; assay: DCs pulsed with heat-killed or infected with living M. tuberculosis, recognition by CD1b-restricted T cell clones; format: cell-based, human
Experimental: Pulsing and infection of DCs with M. tuberculosis. M. tuberculosis was killed at 80° C. for 20 min and incubated in RPMI-1640 medium containing 10% FCS for 2 hours at 37° C. with DCs (3×10^4/well) before addition of T cells (10^5/well in triplicate). DCs were infected as previously described De Libero et al. (2005) Immunity 22, 763-72 and IFN-γ release was monitored by ELISA.

[2] = tested on: PBMCs with autologous DCs; format: cell-based, human
CD1b = target: T1, CD1b (Homo sapiens, UniProt P29016); format: cell-based; conditions: Z5B71 clone
T1 construct: expressed in transfected cells; host or cells: THP-1 (human promyelocytic), BCMGS-Neo / -Hygro vectors, electroporation
T1 sequence (P61769 21-119): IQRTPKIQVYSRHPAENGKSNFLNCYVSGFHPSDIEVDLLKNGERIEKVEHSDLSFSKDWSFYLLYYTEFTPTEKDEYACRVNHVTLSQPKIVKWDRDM
T1 sequence (P29016 18-333): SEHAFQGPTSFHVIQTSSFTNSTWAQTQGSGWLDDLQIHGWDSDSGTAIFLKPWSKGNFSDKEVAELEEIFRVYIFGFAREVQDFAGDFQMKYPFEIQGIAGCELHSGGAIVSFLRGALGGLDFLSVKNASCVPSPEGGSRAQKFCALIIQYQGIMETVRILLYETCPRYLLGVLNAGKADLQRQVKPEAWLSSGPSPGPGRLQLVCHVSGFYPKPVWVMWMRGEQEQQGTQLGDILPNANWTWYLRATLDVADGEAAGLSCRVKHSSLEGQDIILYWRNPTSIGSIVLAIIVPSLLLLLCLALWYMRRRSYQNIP

(R)-1-O-mycoloyl-glycerol (3-O-mycoloyl-sn-glycerol) [s(R)-GroMM]
stimulation of the Z5B71 T cell clone (IFN-γ release) (Z5B71 T cell clone): stimulated the Z5B71 T cells more efficiently than the s(S)-GroMM

(S)-1-O-mycoloyl-glycerol (1-O-mycoloyl-sn-glycerol) [s(S)-GroMM]
stimulation of the Z5B71 T cell clone (IFN-γ release) (Z5B71 T cell clone): s(R)-GroMM stimulated the Z5B71 T cells more efficiently than the s(S)-GroMM

glycerol monomycolate [GroMM]
stimulation of the Z5B71 T cell clone (IFN-γ release) (Z5B71 T cell clone): intermediate activity
immunogenicity when APCs infected with living M. tuberculosis (IFN-γ release by Z5B71) [1]: highly immunogenic
IFN-γ release after stimulation, mean average [2]: 117 pg/mL
IFN-γ release after stimulation, mean average ([2]; 10 μg/ml, 6 days): 73 pg/mL
effect of blocking antibodies against type 1 CD1 molecules on induced IFN-γ secretion ([2]; PPD-positive healthy donors, CD1 blocking antibodies 10 μg/ml each): abrogated the reactivity
IFN-γ release after stimulation ([2]; naïve, PPD-negative donors (n=10), 10 μg/ml, 6 days): no response
IFN-γ release after stimulation ([2]; tuberculosis patients (n=11), 10 μg/ml, 6 days): no IFN-γ secretion above background levels
T cell response with APCs expressing CD1b and CD1e versus only CD1b (IFN-γ release) (CD1b; THP-1-CD1b vs THP-1-CD1b-CD1e): very similar T cell response
CD1 restriction: T cell stimulation with panel of CD1-transfected APCs (TNF-α release) (CD1b; THP-1 transfected with CD1A, CD1B or CD1C): Only CD1b-expressing cells were able to stimulate T cells
CD1 restriction: inhibition of clone reactivity by anti-CD1 mAbs (TNF-α release) (CD1b; mAbs at 10 μg/ml, 30 min before T cells): only anti-CD1b mAbs were capable of inhibiting the reactivity of the clone
